Here are results for five compounds from patent publication US8609638B2, “Enzyme inhibiting compounds and methods” (priority 2009, dated 2013).

This test deals with T1, IspH (LytB), E-4-hydroxy-3-methyl-but-2-enyl diphosphate reductase (Aquifex aeolicus, UniProt O67625).
T1 construct: inferred from Ni-NTA purification with imidazole elution; made in house; host or cells: E. coli BL-21(DE3)
Description: biochemical. Further details: species or system A. aeolicus. The procedure: A. aeolicus IspH Protein Purification. BL-21(DE3) cells expressing IspH from A. aeolicus were grown in LB media supplemented with […] ampicillin at 37° C. until the OD600 reached 0.6. Cells were then induced with 200 μg/L anhydrotetracycline and then grown at 20° C. for 15 hours. Cells were harvested by centrifugation (9000 rpm, 8 min, 4° C.) and kept at −80° C. until use. Cell pellets were resuspended and lysed in B-PER (Thermo Scientific, Rockford, Ill.) protein extraction reagent for 1 hour at 4° C. and then centrifuged at […] at 4° C. for 15 minutes. The supernatant was applied to a Ni-NTA column equilibrated with 5 mM imidazole in pH 8.0 buffer containing 50 mM Tris HCl and 150 mM NaCl. After washing with 20 mM imidazole, protein was eluted with 100 mM imidazole. Fractions were collected and dialyzed in pH 8.0 buffer containing 50 mM Tris HCl, 150 mM NaCl, 5% glycerol, and 1 mM DTT, four times. The purified protein was flash-frozen in liquid nitrogen and stored at −80° C. until use.
E. coli IspH Protein Purification. BL21 DE3 (Invitrogen) cells harboring an E. coli IspH construct were grown in LB media at 37° C. until the OD600 reached 0.6. Induction was performed with 200 ng/mL anhydrotetracycline at 20° C. for 15 hours. Cells were harvested by centrifugation at 9000 rpm for 8 min and stored at −80° C. Cell pellets were resuspended and lysed in B-PER protein extraction reagent for about 1 hour at 4° C., and then the lysate was centrifuged at […] for 30 minutes. The supernatant was collected and loaded onto an IBA Strep-tag column equilibrated with buffer W (100 mM Tris.HCl, 150 mM NaCl, pH 8.0). After washing with buffer W, protein was eluted using buffer E (buffer W containing 2.5 mM desthiobiotin). Fractions were collected and dialyzed in pH 8.0 buffer containing 50 mM Tris.HCl, 150 mM NaCl, 5% glycerol, and 1 mM DTT, twice. The purified protein was flashfrozen in liquid nitrogen and stored at −80° C. until use.
Protein Reconstitution. […] Before reconstitution, protein was transferred into a Coy vinyl anaerobic chamber after being degassed on a Schlenk line. The following steps were performed inside the anaerobic chamber with an oxygen level <2 ppm. In a typical reconstitution experiment, 10 mM DTT and ˜0.5 mg of elemental sulfur were added to 3 mL of 0.6 mM protein solution in a pH 8.0 buffer containing 50 mM Tris HCl, 150 mM NaCl, and 5% glycerol. After 1.5 hours under stirring, FeCl3 was slowly added from a 30 mM stock solution to 6 equiv. After 3 hours, an aliquot of the solution was centrifuged and a UV-vis spectrum recorded. If the A410 nm/A280 nm ratio was ≧0.38, the protein was then desalted by passing through a PD10 column. If the ratio was <0.38, more DTT, elemental sulfur, and FeCl3 were added, and the sample was incubated with stirring (for typically ˜2 h) until the 410 nm/280 nm absorption ratio was ˜0.38. The reconstituted protein was then concentrated by ultrafiltration, and the protein concentration was determined by using a Bio-Rad (Hercules, Calif.) protein assay kit.
IspH inhibition assays. Assays were performed anaerobically at room temperature according to the methods of Altincicek et. al. (FEBS Lett. (2002) 532: 437-440) with the following modifications. […]
For enzyme assays, various amounts of the test inhibitor ([…]) were added and the reactions were monitored at 732 nm. […]

Read-outs that look alike come from different tables or passages of the source. Some results are limits rather than exact numbers.

The Ki is the equilibrium dissociation constant of an inhibitor or competing ligand from its target. Usually IC50 stands for the midpoint of a concentration-inhibition curve.

T1 sequence (O67625 whole entry): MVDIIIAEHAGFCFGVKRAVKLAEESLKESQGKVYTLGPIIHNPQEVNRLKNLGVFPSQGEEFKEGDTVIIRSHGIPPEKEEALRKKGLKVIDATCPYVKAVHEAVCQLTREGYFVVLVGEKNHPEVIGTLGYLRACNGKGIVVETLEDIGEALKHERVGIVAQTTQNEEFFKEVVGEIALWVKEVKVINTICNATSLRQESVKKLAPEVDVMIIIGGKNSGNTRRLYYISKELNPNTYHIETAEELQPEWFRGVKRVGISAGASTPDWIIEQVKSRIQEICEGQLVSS

In the case of `C#CCCOP(=O)(O)OP(=O)(O)O` [BPH-1077, But-3-ynyl diphosphate], the Ki (IspH inhibition, Ki deduced from IC50 by Cheng-Prusoff equation, read-out: Ki) is roughly 0.2 µM.

On to `C#CCOP(=O)(O)OP(=O)(O)O` [BPH-1061, Prop-2-ynyl diphosphate], for which, for the setting “IspH inhibition, inhibitor incubated 10 minutes before 34 μM HMBPP”, the IC50 was determined as 6.8 µM.

For `C#CCO` [Propargyl alcohol, reference compound], for the setting “IspH inhibition, read-out: Ki”, the Ki was greater than 10000 µM.

For the compound `O=C(O)CCCCOP(=O)(O)OP(=O)(O)O` [BPH-988, 5-Pentanoic acid diphosphate], the Ki (Ki) amounted to 51 µM.

As for `C#CC[PH](=O)CP(=O)(O)O` (centres unmarked) [BPH-1084, [[(Prop-2-ynyl)phosphinyl]methyl]phosphonic acid], under “relative to parent or comparator compounds”, the “activity in IspH inhibition (in words)” value is “decreased activity”.
